Entries after “also recorded” stand apart in the source; their conditions may differ.
Columns and labels:
Format in all cases: cell-based
isolated rat adipocytes [1] = assay: Glucose oxidation: incorporation of 14C-glucose into CO2 by isolated rat adipocytes
Protocol: Substrate Oxidation: Oxidation is measured using a modification of the method of Rodbell (Rodbell, 1964) and a modification of the cell culture system described by Bottcher and Furst (Bottcher, 1996). Briefly, adipocytes are isolated, counted and sized as previously described. Adipocytes are plated as described except they are placed in a sterile 20 ml scintillation vial instead of a well. Two ml of treatment media containing [U-^14C]-substrate (0.3 uCi/ml; glucose, fatty acids, malate, fumarate, pyruvate) is added to the vials. The vials are filled with 95% O2-5% CO2 gas and capped with rubber stoppers fitted with a hanging center well. Each well contains a 2×8 cm strip of Whatman No. 1 paper. Vials are maintained at 37° C. for 48 hr. After 48 hr, a sample of media is removed from each vial using a 4 inch, 23 gauge needle. Using another syringe and 23 gauge needle, 200 ul of sodium benzethonium is placed onto the paper strip and hanging well to capture CO2. Concentrated sulfuric acid is added to the vial in order to lyse cells and liberate all CO2 from the collagen matrix. After 24 hours, the hanging well and paper are transferred to another vial containing scintillation fluid and counted. The data are expressed as % DPM recovered as CO2 of the total DPM remaining in the media at 48 hours and as micromoles of substrate oxidized over time.

isolated rat adipocytes [2] = assay: Lactate production and proportion of glucose anaerobically metabolized to lactate in isolated cultured rat adipocytes
Protocol: Cell isolation/preparation: Adipocytes are prepared from epididymal fat pads from male Sprague-Dawley rats weighing 300-600 g. Epididymal fat depots are resected from halothane anesthetized rats under aseptic conditions and adipocytes are isolated by collagenase digestion by the Rodbell method (Rodbell M. Metabolism of isolated fat cells. I. Effects of hormones on glucose metabolism and lipolysis. J Biol Chem. 1964; 239: 375-380), with minor modifications as previously described (Mueller W M, Gregoire F M, Stanhope K L, Mobbs C V, Mizuno T M, Warden C H, Stem J S, Havel P J. Evidence that glucose metabolism regulates leptin secretion from isolated adipocytes. Endocrinology 139: 551-558, 1998; Mueller W M, Stanhope K L, Gregoire F, Evans J L, Havel P J. Effects of metformin and vanadium on leptin secretion from cultured rat adipocytes. Obesity Res. 8: 530-539, 2000; Medina E A, Stanhope K L, Mizuno T M, Mobbs C V, Gregoire F, Hubbard N E, Erickson K L, Havel P J. Effects of tumor necrosis factor alpha on leptin secretion and gene expression: relationship to changes of glucose metabolism in isolated rat adipocytes. Int J Obes Relat Metab Disord. 23: 896-903, 1999.). The isolated adipocytes are then incubated for 30 minutes at 37 C before being plated and cultured on Matrigel-coated plates.
Adipocyte Culture: Adipocytes are maintained in culture anchored to a basement membrane matrix (Matrigel, Becton Dickinson, Franklin Lakes, N.J.) or collagen from Cohesion Technologies, (Palo Alto, Calif.). Although all in vitro systems have inherent advantages and disadvantages, advantages of this system compared with cultures containing free-floating adipocytes are that the matrix simulates their normal basement membrane attachment and that the cells are maintained in close proximity to each other, allowing direct cell to cell contact. Together the cell contact and basement membrane attachment help to maintain differentiation, since adipocytes have a strong tendency to dedifferentiate in long-term (>24 h) culture. In addition, the matrix and the small amount of serum in the media both contain growth factors, which are also likely to help in maintaining cell differentiation. Furthermore, the adipocytes in this system are not exposed to toxic levels of oxygen at the interface of the media and the incubator atmosphere, as opposed to free-floating adipocytes which aggregate at the surface of the media. An advantage of the system over those containing minced adipose tissue is that all of the cells in the culture are equally exposed to the nutrients and the oxygen dissolved in the media. Thus, although clearly different from the in vivo situation, this system provides a more physiological environment than most systems for maintaining adipocytes in long-term culture.
In culturing each suspension, Matrigel is first thawed on ice to a liquid and uniformly applied to the surface of culture dishes (300 μl Matrigel/35 mm well). After the incubation period, 150 μl of the adipocyte suspension (2:1 ratio of packed cells to media) are plated on the Matrigel or collagen matrix. Adipocytes from each suspension are thoroughly mixed with a transfer pipette before plating to insure that a similar number adipocytes with a similar size distribution are added to the control and experimental wells for each suspension. The warmth of the added cells and buffer causes the Matrigel to gel around the adipocytes, or the neutralization of the acidic pH of the collagen solution to 7.0 solidifies the collagen, and both of these techniques effectively anchor the adipocytes to the culture dish. After a 30 minute incubation at 37° C., 2 ml of warm culture medium is added. The cells are maintained in an incubator at 37° C. for 96 hours with 6% CO2. Aliquots of adipocytes from each animal are divided into wells, with the different concentrations of insulin or other agents to be tested. In each plate an appropriate control well contains adipocytes from the same animal. […]

isolated rat adipocytes [3] = assay: Incorporation of glucose carbon into triglyceride in cultured adipocytes
Protocol: Incorporation of Glucose Carbon into Triglyceride: To measure glucose incorporation into triglyceride, cultures are exposed to media containing 0.01 uCi/ml of ^14C-glucose. After 96 hr, media and extracellular lipid is removed from the well and methanol added. Then scrape the collagen-cell matrix from the well and transfer into a 50 ml glass tube. Rinse the well and scrape again in methanol to assure complete transfer of cells. Total triglycerides will be extracted using the Folch method (Folch, 1957). An aliquot of the lipid extract will be placed into vials containing scintillation fluid then radioactivity will be measured.
The first measurement is used to calculate the amount of glucose incorporated into triglycerides. Another aliquot of the lipid extract is placed into pre-weighed aluminum pans to determine the total amount of triglyceride per well. The remaining lipid is saponified and acidified to separate the glycerol and fatty acids. An aliquot of the lipid extract is placed into vials containing scintillation fluid and counted. This second count represents the ^14C-glucose incorporation into fatty acids. By subtraction, the amount that was incorporated into triglyceride though glycerol is also determined. Glucose incorporation into triglyceride and into the fatty acid portion of the triglyceride are calculated by multiplying disintegration per min by total ug of glucose/well over the total DPM/well.

leptin promoter = assay: Leptin promoter luciferase construct transfected into 3T3-L1 cells
[4] = DTNB 100.0 μM + insulin 0.48 nM vs control (insulin only)
[5] = DTNB 100.0 μM + insulin 0.48 nM, isolated rat adipocytes, 96 h culture
[6] = DTNB 100 μM, NEM 0.1 μM, DCA 2 mM

Row | Molecule | effect on absolute and proportional glucose oxidation, labeled glucose into CO2 (in words) (isolated rat adipocytes [1]; DTNB (50 μM in FIG. 20) and DCA (2 mM), percent of control) | Change in Parameter: Glucose to Lactate (%) (isolated rat adipocytes [2]; [4]) | Change in Parameter: Lactate Produced (μg) over 96 h (isolated rat adipocytes [2]; [4]) | Glucose to Lactate (%) (isolated rat adipocytes [2]; [5]) | Lactate Produced (μg) over 96 h (isolated rat adipocytes [2]; [5]) | effect on glucose not converted to lactate or incorporated into TG (OTHER; glucose flux into oxidation), by subtraction (in words) (isolated rat adipocytes [2]; [6]) | effect on proportion of glucose anaerobically metabolized to lactate (in words) (isolated rat adipocytes [2]; [6]) | effect on lactate production (in words) (isolated rat adipocytes [2]; DTNB 100 μM, NEM 0.1 μM, DCA 0.1 to 5.0 mM) | effect on proportion of glucose incorporated into TG (in words) (isolated rat adipocytes [3]; [6]) | increase of proportional oxidation of glucose (isolated rat adipocytes [1]; insulin 1.6 nM) | effect on amount of glucose oxidized to CO2 (in words) (isolated rat adipocytes [1]; insulin 1.6 nM, n=18) | effect on proportion of glucose converted to lactate (in words) (isolated rat adipocytes [2]; insulin 0.16 to 1.6 nM) | effect on proportion of glucose not converted to lactate or triglyceride (OTHER), by subtraction (in words) (isolated rat adipocytes [2]; insulin 0.16 to 1.6 nM) | effect on proportional incorporation of glucose into triglyceride (in words) (isolated rat adipocytes [3]; insulin 0.16 to 1.6 nM, listed as Insulin) | effect on activity of control plasmid (in words) (leptin promoter; insulin 10 nM, 2-DG 10 mg/dl) | increase of leptin promoter activity (leptin promoter; insulin 0.1 to 10 nM, n=2 each) | effect on leptin promoter activity (in words) (leptin promoter; insulin 0.1 to 10 nM, 2-DG 10 mg/dl on basal and insulin-stimulated (10 nM) activity)
1 | O=C(O)c1cc(SSc2ccc([N+](=O)[O-])c(C(=O)O)c2)ccc1[N+](=O)[O-] [DTNB, 5,5′-Dithiobis(2-nitrobenzoate)] | increase | −9.5 ± 1.0% | -53 ± 25 µg | 13.1 ± 1.4% | 179 ± 22 µg | increased | decreased | without any increase | without affecting |  |  |  |  |  |  |  | 
2 | insulin |  |  |  |  |  |  |  |  |  | 43.6±10.6% | doubles; also recorded: markedly increases | decreases | increases | does not affect; also recorded: does not alter | unaffected | 3-6 fold | increases

— patent US20070203225A1, “METHOD OF INCREASING ENDOGENOUS ADIPONECTIN PRODUCTION AND LEPTIN PRODUCTION” (priority 2001, published 2007)
